Data reported in patent publication US5863931A, “Amidino derivatives and their use as nitric oxide synthase inhibitors” (priority 1991, dated 1999).
Where two headings read alike, the source gives them in different places.

Key:
Inducible NO synthase = biological target: T1, Inducible NO synthase (Rattus norvegicus, UniProt Q06518); assay: Inducible NO synthase inhibition (method essentially according to Rees et al, Biochem. Biophys. Res. Comm. 1990; rat aortic rings, LPS-induced loss of tone); type: cell-based; settings: for EC50 ratio: constitutive EC50 / inducible EC50
T1 construct: activity of the inducible enzyme in the vascular smooth muscle cells; from tissue; host or cells: rat aortic rings, LPS-induced (vascular smooth muscle)
Procedure: (§1) The activity of a compound as an inhibitor of the enzyme NO synthase can be determined by an assay in which a macrophage cell line (J774) is induced to express NO synthase with lipopolysaccharide (LPS) and interferon gamma and NO generated is measured by its reaction with haemoglobin or as nitrite. […] Selectivity can be determined by use of an assay based on rat aortic rings in vitro. The basal tone of the tissue is used as an indication of the activity of the constitutive NO synthase whereas LPS-induced loss of tone mediated by NO is used as an indication of the activity of the inducible enzyme in the vascular smooth muscle cells.
Inducible NO synthase--method essentially according to Rees et al, Biochem. Biophys. Res. Comm., 173, 541-547 (1990).

Constitutive NO synthase = biological target: T2, Constitutive NO synthase (Rattus norvegicus, UniProt Q62600); assay: Constitutive NO synthase inhibition (method of Rees et al, Br. J. Pharmacol. 1990; rat aortic rings in vitro, basal tone); type: cell-based
T2 construct: The basal tone of the tissue is used as an indication of the activity of the constitutive NO synthase; from tissue; host or cells: rat aortic rings
Procedure: as §1, with “cells. […] Constitutive NO synthase--method of Rees et al, Br. J. Pharmacol., 101, 746-752 (1990)” for “cells.”

[1] = test system: constitutive and the inducible NO synthase; settings: inhibits both constitutive and inducible NO synthase; cited from earlier work
[2] = inducible NO synthase, read-out: NO Synthase Activity Inducible EC50

Row | Structure (SMILES) | EC50 ratio (Inducible NO synthase) | EC50 (Inducible NO synthase; [2]) [nM] | EC50 (Constitutive NO synthase) [nM] | EC50 (Inducible NO synthase) [nM] | selectivity between constitutive and inducible NO synthase [1]
1 | CC(=N)NC/C=C/CC(N)C(=O)O.Cl (racemic) [Example 3, (±)-E-2-Amino-6-(1-Iminoethylamino)-hex-4-enoic acid hydrochloride] | 9.7 | 320 | 3100 |  | 
2 | CC(=N)NCCC[C@H](N)C(=O)O.Cl [Example 1, (S)-N^5-(1-Iminoethyl)ornithine hydrochloride] | 36.4 | 140 | 5100 |  | 
3 | CC(=N)NCCCC[C@H](N)C(=O)O.Cl [Example 2, (S)-N^6-(1-Iminoethyl) lysine hydrochloride] | 43.1 |  | 6900 | 160 | 
4 | CC(=N)NCCSC[C@@H](N)C(=O)O.Cl [Example 4, (S)-S-2-(1-Iminoethylamino)ethylcysteine hydrochloride] | 33.4 | 130 | 4300 |  | 
5 | CN=C(N)NCCC[C@H](N)C(=O)O [L-NMMA, L-N-monomethyl-arginine] |  |  |  |  | non-selective
